The record followed here is paper PMC11497264 (Chembiochem, 2024).

Assay [1] concerns the target T1, human GRP78 (Homo sapiens, UniProt P11021).
T1 construct: The full length human GRP78 protein recombinantly produced in Escherichia coli; 6xHis (inferred from capture on nickel-NTA chip); purchased Abcam (Cambridge, UK); host or cells: Escherichia coli
Description: biochemical. Conditions: for kon: read-out: Ka1 (association rate constant 1). The class given is binding.

Assay [2] concerns the target T2, GRP78:S1 interaction (Homo sapiens, UniProt P11021).
T2 construct: The full length human GRP78 protein recombinantly produced in Escherichia coli; purchased Abcam (GRP78); Peak Proteins Ltd (S1); host or cells: Escherichia coli (GRP78); HEK293 (S1)
The assay can be described thus: biochemical. The class given is binding, human GRP78 / SARS-CoV-2 S1.

The mark [3] stands for this setting: read-out: Kd1 (dissociation rate constant 1).
Setting [4] is: read-out: Kd2 (dissociation rate constant 2).

SMILES strings stand for the structures. Like-named read-outs stand apart in the source and are kept apart here. Bridge positions count the residues as written; N and C are the ends. Peptide text beside a SMILES is read from it.

T1 sequence (P11021 19-654): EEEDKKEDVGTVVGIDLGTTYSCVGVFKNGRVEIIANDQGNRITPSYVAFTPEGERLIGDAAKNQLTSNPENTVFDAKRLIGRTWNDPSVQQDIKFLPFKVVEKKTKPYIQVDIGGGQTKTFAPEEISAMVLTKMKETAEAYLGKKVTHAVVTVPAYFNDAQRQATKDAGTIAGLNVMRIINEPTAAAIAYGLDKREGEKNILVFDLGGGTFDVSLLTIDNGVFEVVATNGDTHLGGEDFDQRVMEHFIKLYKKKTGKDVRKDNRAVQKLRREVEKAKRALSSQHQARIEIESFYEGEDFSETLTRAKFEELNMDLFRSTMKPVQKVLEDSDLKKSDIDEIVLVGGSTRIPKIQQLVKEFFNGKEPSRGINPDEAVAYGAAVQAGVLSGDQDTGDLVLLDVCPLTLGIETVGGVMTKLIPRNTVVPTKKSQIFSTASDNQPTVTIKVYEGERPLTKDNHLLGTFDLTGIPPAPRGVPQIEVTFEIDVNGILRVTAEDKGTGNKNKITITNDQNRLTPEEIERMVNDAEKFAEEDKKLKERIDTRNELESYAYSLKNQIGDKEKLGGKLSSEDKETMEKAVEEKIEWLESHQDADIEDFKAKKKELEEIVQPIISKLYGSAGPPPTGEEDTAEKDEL
T2 sequence (P11021 19-654): as above

Turning to `CC(C)[C@@H]1NC(=O)CNC(=O)[C@H](CC(N)=O)NC(=O)[C@@H](N)CSSC[C@@H](C(N)=O)NC(=O)[C@H](CC(N)=O)NC(=O)[C@H](Cc2ccccc2)NC(=O)CNC(=O)[C@H](C)NC1=O` [LCP O] (H-CNGVAGFNC-NH2; disulfide 1-9), the Kd in assay [1] (KD (equilibrium dissociation constant)) turned out to be 2120 µM; in assay [1] (affinity of binding to GRP78), 2000 µM. Further, in assay [1], the kon worked out at 140 M⁻¹ s⁻¹. Moreover, the koff worked out at 0.643 s⁻¹ in assay [1] (setting [3]) and 0.00182 s⁻¹ in assay [1] (setting [4]). Moreover, in assay [2], the IC50 was less than 3 µM.
For the molecule `CC(C)[C@@H]1NC(=O)CNC(=O)[C@H](CC(N)=O)NC(=O)[C@@H](N)CSSC[C@@H](C(N)=O)NC(=O)[C@H](CC(N)=O)NC(=O)[C@H](Cc2ccccc2)NC(=O)CNC(=O)[C@H](CCC(=O)O)NC1=O` [LCP W] (H-CNGVEGFNC-NH2; disulfide 1-9), the Kd in assay [1] (affinity of binding to GRP78) turned out to be 200 µM. In assay [1], the kon turned out to be 1670 M⁻¹ s⁻¹. Further, the koff in assay [1] (setting [3]) turned out to be 0.43 s⁻¹; in assay [1] (setting [4]), 0.03 s⁻¹. The concentration for half-maximal inhibition (IC50) in assay [2] is less than 3 µM.

As a reminder, the Kd is a measure of binding affinity in units of concentration. High values mean lower affinity, low ones higher affinity. The IC50 is the concentration at which inhibition is half-maximal.
